Measurements: article PMC4832243, “Discovery of Potent VEGFR-2 Inhibitors based on Furopyrimidine and Thienopyrimidne Scaffolds as Cancer Targeting Agents” (Scientific Reports, 2016)

Assays:
VEGFR-2 (KDR) = molecular target: T1, VEGFR-2 (KDR) (Homo sapiens, UniProt P35968); assay: In vitro VEGFR-2 tyrosine kinase activity (Kinase-Glo Plus luminescence, BPS Bioscience); type: biochemical; conditions: single dose concentration of 10 μM
T1 construct: purchased BPS Bioscience 40301

HL-60(TB) = assay: NCI 60 cell line panel (SRB), HL-60(TB); type: cell-based; conditions: Homo sapiens, Leukemia, single dose of 10 μM, read-out: Cell Growth Percent
K-562 = assay: NCI 60 cell line panel (SRB), K-562; type: cell-based; conditions: Homo sapiens, K562; K-562, Leukemia; single dose of 10 μM; read-out: Cell Growth Percent
RPMI-8226 = assay: NCI 60 cell line panel (SRB), RPMI-8226; type: cell-based; conditions: Homo sapiens; RPMI-8226, Leukemia; single dose of 10 μM; read-out: Cell Growth Percent
SR = assay: NCI 60 cell line panel (SRB), SR; type: cell-based; conditions: Homo sapiens, Leukemia, single dose of 10 μM, read-out: Cell Growth Percent
EKVX = assay: NCI 60 cell line panel (SRB), EKVX; type: cell-based; conditions: Homo sapiens, Non-Small Cell Lung Cancer, single dose of 10 μM, read-out: Cell Growth Percent
HOP-92 = assay: NCI 60 cell line panel (SRB), HOP-92; type: cell-based; conditions: Homo sapiens; HOP-92, Non-Small Cell Lung Cancer; single dose of 10 μM; read-out: Cell Growth Percent
NCI-H226 = assay: NCI 60 cell line panel (SRB), NCI-H226; type: cell-based; conditions: Homo sapiens; NCI-H226, Non-Small Cell Lung Cancer; single dose of 10 μM; read-out: Cell Growth Percent
NCI-H322M = assay: NCI 60 cell line panel (SRB), NCI-H322M; type: cell-based; conditions: Homo sapiens, Non-Small Cell Lung Cancer, single dose of 10 μM, read-out: Cell Growth Percent
NCI-H460 = assay: NCI 60 cell line panel (SRB), NCI-H460; type: cell-based; conditions: Homo sapiens; NCI-H460, Non-Small Cell Lung Cancer; single dose of 10 μM; read-out: Cell Growth Percent
NCI-H522 = assay: NCI 60 cell line panel (SRB), NCI-H522; type: cell-based; conditions: Homo sapiens; NCI-H522, Non-Small Cell Lung Cancer; single dose of 10 μM; read-out: Cell Growth Percent
HT29 = assay: NCI 60 cell line panel (SRB), HT29; type: cell-based; conditions: Homo sapiens, HT-29; HT29, Colon Cancer; single dose of 10 μM; read-out: Cell Growth Percent
SF-268 = assay: NCI 60 cell line panel (SRB), SF-268; type: cell-based; conditions: Homo sapiens; SF-268, CNS Cancer; single dose of 10 μM; read-out: Cell Growth Percent
SF-295 = assay: NCI 60 cell line panel (SRB), SF-295; type: cell-based; conditions: Homo sapiens; SF-295, CNS Cancer; single dose of 10 μM; read-out: Cell Growth Percent
MDA-MB-435 = assay: NCI 60 cell line panel (SRB), MDA-MB-435; type: cell-based; conditions: Homo sapiens; MDA-MB-435, Melanoma; single dose of 10 μM; read-out: Cell Growth Percent
SK-MEL-2 = assay: NCI 60 cell line panel (SRB), SK-MEL-2; type: cell-based; conditions: Homo sapiens; SK-MEL-2, Melanoma; single dose of 10 μM; read-out: Cell Growth Percent
SK-MEL-5 = assay: NCI 60 cell line panel (SRB), SK-MEL-5; type: cell-based; conditions: Homo sapiens; SK-MEL-5, Melanoma; single dose of 10 μM; read-out: Cell Growth Percent
UACC-257 = assay: NCI 60 cell line panel (SRB), UACC-257; type: cell-based; conditions: Homo sapiens; UACC-257, Melanoma; single dose of 10 μM; read-out: Cell Growth Percent
UACC-62 = assay: NCI 60 cell line panel (SRB), UACC-62; type: cell-based; conditions: Homo sapiens; UACC-62, Melanoma; single dose of 10 μM; read-out: Cell Growth Percent
OVCAR-4 = assay: NCI 60 cell line panel (SRB), OVCAR-4; type: cell-based; conditions: Homo sapiens; OVCAR-4, Ovarian Cancer; single dose of 10 μM; read-out: Cell Growth Percent
OVCAR-5 = assay: NCI 60 cell line panel (SRB), OVCAR-5; type: cell-based; conditions: Homo sapiens; OVCAR-5, Ovarian Cancer; single dose of 10 μM; read-out: Cell Growth Percent
OVCAR-8 = assay: NCI 60 cell line panel (SRB), OVCAR-8; type: cell-based; conditions: Homo sapiens; OVCAR-8, Ovarian Cancer; single dose of 10 μM; read-out: Cell Growth Percent
NCI/ADR-RES = assay: NCI 60 cell line panel (SRB), NCI/ADR-RES; type: cell-based; conditions: Homo sapiens, Ovarian Cancer, single dose of 10 μM, read-out: Cell Growth Percent
786-0 = assay: NCI 60 cell line panel (SRB), 786-0; type: cell-based; conditions: Homo sapiens; 786-0, Renal Cancer; single dose of 10 μM; read-out: Cell Growth Percent
A498 = assay: NCI 60 cell line panel (SRB), A498; type: cell-based; conditions: Homo sapiens; A498, Renal Cancer; single dose of 10 μM; read-out: Cell Growth Percent
ACHN = assay: NCI 60 cell line panel (SRB), ACHN; type: cell-based; conditions: Homo sapiens, Renal Cancer, single dose of 10 μM, read-out: Cell Growth Percent
CAKI-1 = assay: NCI 60 cell line panel (SRB), CAKI-1; type: cell-based; conditions: Homo sapiens; CAKI-1, Renal Cancer; single dose of 10 μM; read-out: Cell Growth Percent
SN12C = assay: NCI 60 cell line panel (SRB), SN12C; type: cell-based; conditions: Homo sapiens, Renal Cancer, single dose of 10 μM, read-out: Cell Growth Percent
PC-3 = assay: NCI 60 cell line panel (SRB), PC-3; type: cell-based; conditions: Homo sapiens; PC-3, Prostate Cancer; single dose of 10 μM; read-out: Cell Growth Percent
DU-145 = assay: NCI 60 cell line panel (SRB), DU-145; type: cell-based; conditions: Homo sapiens; DU-145, Prostate Cancer; single dose of 10 μM; read-out: Cell Growth Percent
MCF7 = assay: NCI 60 cell line panel (SRB), MCF7; type: cell-based; conditions: Homo sapiens; MCF7, Breast Cancer; single dose of 10 μM; read-out: Cell Growth Percent
HS 578T = assay: NCI 60 cell line panel (SRB), HS 578T; type: cell-based; conditions: Homo sapiens, Breast Cancer, single dose of 10 μM, read-out: Cell Growth Percent
T-47D = assay: NCI 60 cell line panel (SRB), T-47D; type: cell-based; conditions: Homo sapiens, T47D, Breast Cancer, single dose of 10 μM, read-out: Cell Growth Percent
MDA-MB-468 = assay: NCI 60 cell line panel (SRB), MDA-MB-468; type: cell-based; conditions: Homo sapiens; MDA-MB-468, Breast Cancer; single dose of 10 μM; read-out: Cell Growth Percent

T1 sequence (P35968 20-1356): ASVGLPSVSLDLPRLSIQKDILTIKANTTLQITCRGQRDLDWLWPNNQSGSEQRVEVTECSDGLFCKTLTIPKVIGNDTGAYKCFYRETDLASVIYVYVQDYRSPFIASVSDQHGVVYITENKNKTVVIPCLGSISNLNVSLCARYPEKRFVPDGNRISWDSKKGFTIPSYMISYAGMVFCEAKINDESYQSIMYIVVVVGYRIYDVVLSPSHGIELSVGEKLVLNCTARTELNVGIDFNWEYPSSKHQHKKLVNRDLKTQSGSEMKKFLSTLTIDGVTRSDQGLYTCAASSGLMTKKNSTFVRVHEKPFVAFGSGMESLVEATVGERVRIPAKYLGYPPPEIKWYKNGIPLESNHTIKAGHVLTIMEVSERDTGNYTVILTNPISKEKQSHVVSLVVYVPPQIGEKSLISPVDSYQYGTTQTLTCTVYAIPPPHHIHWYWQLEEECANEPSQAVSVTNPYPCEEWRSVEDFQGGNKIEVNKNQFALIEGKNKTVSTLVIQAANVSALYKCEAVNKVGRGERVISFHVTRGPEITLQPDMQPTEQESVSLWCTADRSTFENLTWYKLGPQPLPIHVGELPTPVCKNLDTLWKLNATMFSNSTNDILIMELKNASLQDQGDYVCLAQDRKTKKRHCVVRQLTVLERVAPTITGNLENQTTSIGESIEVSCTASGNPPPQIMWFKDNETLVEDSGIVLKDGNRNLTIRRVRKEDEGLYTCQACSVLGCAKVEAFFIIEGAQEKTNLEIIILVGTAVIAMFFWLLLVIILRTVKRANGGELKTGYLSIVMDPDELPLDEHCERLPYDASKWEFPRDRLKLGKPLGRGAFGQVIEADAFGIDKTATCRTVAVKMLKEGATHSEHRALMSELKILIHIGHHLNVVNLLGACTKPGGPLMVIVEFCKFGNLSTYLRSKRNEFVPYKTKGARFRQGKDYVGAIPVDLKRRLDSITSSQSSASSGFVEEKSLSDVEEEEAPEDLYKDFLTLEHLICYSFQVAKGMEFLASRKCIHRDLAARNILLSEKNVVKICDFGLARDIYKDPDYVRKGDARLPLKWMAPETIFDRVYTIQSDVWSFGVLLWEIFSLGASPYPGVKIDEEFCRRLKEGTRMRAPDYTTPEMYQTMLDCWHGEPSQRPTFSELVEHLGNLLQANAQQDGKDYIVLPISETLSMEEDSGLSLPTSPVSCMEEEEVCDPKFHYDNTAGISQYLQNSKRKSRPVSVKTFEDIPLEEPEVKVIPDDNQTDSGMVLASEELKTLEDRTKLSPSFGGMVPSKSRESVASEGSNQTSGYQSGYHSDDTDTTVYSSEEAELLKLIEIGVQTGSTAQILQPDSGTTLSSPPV

| SMILES | inhibition at 10 µM (VEGFR-2 (KDR)) [%] | activity at 10 µM (HL-60(TB)) [%] | activity at 10 µM (K-562) [%] | activity at 10 µM (RPMI-8226) [%] | activity at 10 µM (SR) [%] | activity at 10 µM (EKVX) [%] | activity at 10 µM (HOP-92) [%] | activity at 10 µM (NCI-H226) [%] | activity at 10 µM (NCI-H322M) [%] | activity at 10 µM (NCI-H460) [%] | activity at 10 µM (NCI-H522) [%] | activity at 10 µM (HT29) [%] | activity at 10 µM (SF-268) [%] | activity at 10 µM (SF-295) [%] | activity at 10 µM (MDA-MB-435) [%] | activity at 10 µM (SK-MEL-2) [%] | activity at 10 µM (SK-MEL-5) [%] | activity at 10 µM (UACC-257) [%] | activity at 10 µM (UACC-62) [%] | activity at 10 µM (OVCAR-4) [%] | other results |
| --- | --- | --- | --- | --- | --- | --- | --- | --- | --- | --- | --- | --- | --- | --- | --- | --- | --- | --- | --- | --- | --- |
| CCOC(=O)c1c(C)oc2ncnc(Nc3ccc(NC(=O)Nc4cccc(Cl)c4)cc3)c12 [Compound 15d] | 61 | 88.4 | 67.7 | 46.1 | 53.6 | 72.3 | 50.6 | 54.8 | 83.5 | 67.1 | 57.1 | 37.1 | 86.4 | 79.5 | 65.8 | 72.7 | 52.9 | 83.9 | 69.1 | 73.7 | activity at 10 µM (OVCAR-5): 122%; activity at 10 µM (OVCAR-8): 50.2%; activity at 10 µM (NCI/ADR-RES): 43.7%; activity at 10 µM (786-0): 79.1%; activity at 10 µM (A498): 63%; activity at 10 µM (ACHN): 57.4%; activity at 10 µM (CAKI-1): 90.8%; activity at 10 µM (SN12C): 73.9%; activity at 10 µM (PC-3): 41.2%; activity at 10 µM (DU-145): 70.8%; activity at 10 µM (MCF7): 43.3%; activity at 10 µM (HS 578T): 80.6%; activity at 10 µM (T-47D): 1.9%; activity at 10 µM (MDA-MB-468): 49.7% |
| CCOC(=O)c1c(C)oc2ncnc(Nc3ccc(C(=O)NCCc4ccccc4)cc3)c12 [Compound 14e] | 10 | 87.6 | 88.9 | 84.5 | 89.2 | 90.3 | 61.5 | 63.1 | 92.9 | 82.9 | 66.9 | 58.8 | 74.1 | 90.4 | 87.5 | 82.4 | 85.6 | 79.6 | 94.9 | 45.5 | activity at 10 µM (OVCAR-5): 110%; activity at 10 µM (OVCAR-8): 76.6%; activity at 10 µM (NCI/ADR-RES): 76.9%; activity at 10 µM (786-0): 74.9%; activity at 10 µM (A498): 77.5%; activity at 10 µM (ACHN): 88.7%; activity at 10 µM (CAKI-1): 92.5%; activity at 10 µM (SN12C): 99.3%; activity at 10 µM (PC-3): 59.2%; activity at 10 µM (DU-145): 82.1%; activity at 10 µM (MCF7): 78.6%; activity at 10 µM (HS 578T): 51.2%; activity at 10 µM (T-47D): 65.1%; activity at 10 µM (MDA-MB-468): 90.7% |
| CCOC(=O)c1c(C)oc2ncnc(Nc3ccc(NC(=O)Nc4ccc(CC)cc4)cc3)c12 [Compound 15i] | 23 | 103 | 98 | 95 | 81.6 | 102 | 94.3 | 104 | 102 | 106 | 83.7 | 103 | 103 | 109 | 102 | 120 | 93.7 | 111 | 108 | 105 | activity at 10 µM (OVCAR-5): 107%; activity at 10 µM (OVCAR-8): 112%; activity at 10 µM (NCI/ADR-RES): 97.2%; activity at 10 µM (786-0): 99.8%; activity at 10 µM (A498): 109%; activity at 10 µM (ACHN): 98.8%; activity at 10 µM (CAKI-1): 98.3%; activity at 10 µM (SN12C): 107%; activity at 10 µM (PC-3): 90.7%; activity at 10 µM (DU-145): 103%; activity at 10 µM (MCF7): 94.9%; activity at 10 µM (HS 578T): 97.7%; activity at 10 µM (T-47D): 78.2%; activity at 10 µM (MDA-MB-468): 128% |
